# Results reported in article PMC7156458, “Synthetic biology based construction of biological activity-related library of fungal decalin-containing diterpenoid pyrones” (Nature Communications, 2020).
# Target: Aβ42 (Homo sapiens, UniProt P05067)
# Experiment: Th-T (thioflavin-T) assay of Aβ42 aggregation
# Assay type: biochemical
# Settings: for Th-T assay plate reading, mean of three wells (Supplementary Fig. 47): source data, Ab alone and No Ab as controls
# Aβ42, sequence (P05067 672-713): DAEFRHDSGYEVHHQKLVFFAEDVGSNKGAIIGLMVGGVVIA
smiles,measurement,setting,value
"C=C1CC[C@@H]2[C@](C)(CC[C@H]3O[C@H](C=C(C)C)C[C@@]23C)[C@@H]1Cc1c(O)c(C)c(C)oc1=O [Compound 10, higginsianin A]","Th-T fluorescence, mean of three wells","Aβ42 aggregation time course, reading M117",3.027
same,"Th-T fluorescence, mean of three wells","Aβ42 aggregation time course, reading M118",3.005
same,"Th-T fluorescence, mean of three wells","Aβ42 aggregation time course, reading M119",3.036
same,"Th-T fluorescence, mean of three wells","Aβ42 aggregation time course, reading M120",3.024
same,"Th-T fluorescence, mean of three wells","Aβ42 aggregation time course, reading M121",3.009
same,"Th-T fluorescence, mean of three wells","Aβ42 aggregation time course, reading M122",2.9814
same,"Th-T fluorescence, mean of three wells","Aβ42 aggregation time course, reading M123",3.007
same,"Th-T fluorescence, mean of three wells","Aβ42 aggregation time course, reading M124",3.01
same,"Th-T fluorescence, mean of three wells","Aβ42 aggregation time course, reading M125",2.994
same,"Th-T fluorescence, mean of three wells","Aβ42 aggregation time course, reading M126",2.985
same,"Th-T fluorescence, mean of three wells","Aβ42 aggregation time course, reading M127",3.018
same,"Th-T fluorescence, mean of three wells","Aβ42 aggregation time course, reading M128",2.986
same,"Th-T fluorescence, mean of three wells","Aβ42 aggregation time course, reading M129",2.997
same,"Th-T fluorescence, mean of three wells","Aβ42 aggregation time course, reading M130",3.004
same,"Th-T fluorescence, mean of three wells","Aβ42 aggregation time course, reading M131",2.988
same,"Th-T fluorescence, mean of three wells","Aβ42 aggregation time course, reading M132",2.974
same,"Th-T fluorescence, mean of three wells","Aβ42 aggregation time course, reading M133",2.995
same,"Th-T fluorescence, mean of three wells","Aβ42 aggregation time course, reading M134",2.998
same,"Th-T fluorescence, mean of three wells","Aβ42 aggregation time course, reading M135",3.001
same,"Th-T fluorescence, mean of three wells","Aβ42 aggregation time course, reading M136",2.985
same,"Th-T fluorescence, mean of three wells","Supplementary Fig. 47, reading M137",2.995
same,"Th-T fluorescence, mean of three wells","Supplementary Fig. 47, reading M138",2.975
same,"Th-T fluorescence, mean of three wells","Supplementary Fig. 47, reading M139",2.9735
same,"Th-T fluorescence, mean of three wells","Supplementary Fig. 47, reading M140",2.981
same,"Th-T fluorescence, mean of three wells","Supplementary Fig. 47, reading M141",2.969
same,"Th-T fluorescence, mean of three wells","Supplementary Fig. 47, reading M142",2.937
same,"Th-T fluorescence, mean of three wells","Supplementary Fig. 47, reading M143",3.01
same,"Th-T fluorescence, mean of three wells","Supplementary Fig. 47, reading M144",2.949
same,"Th-T fluorescence, mean of three wells","Supplementary Fig. 47, reading M145",2.953
same,"Th-T fluorescence, mean of three wells","Supplementary Fig. 47 source data, measurement M37 of time course",3.026
same,"Th-T fluorescence, mean of three wells","Supplementary Fig. 47 source data, measurement M38 of time course",3.058
same,"Th-T fluorescence, mean of three wells","Supplementary Fig. 47 source data, measurement M39 of time course",3.066
same,"Th-T fluorescence, mean of three wells","Supplementary Fig. 47 source data, measurement M40 of time course",3.0688
same,"Th-T fluorescence, mean of three wells","Supplementary Fig. 47 source data, measurement M41 of time course",3.079
same,"Th-T fluorescence, mean of three wells","Supplementary Fig. 47 source data, measurement M42 of time course",3.094
same,"Th-T fluorescence, mean of three wells","Supplementary Fig. 47 source data, measurement M43 of time course",3.089
same,"Th-T fluorescence, mean of three wells","Supplementary Fig. 47 source data, measurement M44 of time course",3.087
same,"Th-T fluorescence, mean of three wells","Supplementary Fig. 47 source data, measurement M45 of time course",3.107
same,"Th-T fluorescence, mean of three wells","Supplementary Fig. 47 source data, measurement M46 of time course",3.104
same,"Th-T fluorescence, mean of three wells","Supplementary Fig. 47 source data, measurement M47 of time course",3.097
same,"Th-T fluorescence, mean of three wells","Supplementary Fig. 47 source data, measurement M48 of time course",3.099
same,"Th-T fluorescence, mean of three wells","Supplementary Fig. 47 source data, measurement M49 of time course",3.124
same,"Th-T fluorescence, mean of three wells","Supplementary Fig. 47 source data, measurement M50 of time course",3.143
same,"Th-T fluorescence, mean of three wells","Supplementary Fig. 47 source data, measurement M51 of time course",3.109
same,"Th-T fluorescence, mean of three wells","Supplementary Fig. 47 source data, measurement M52 of time course",3.12
same,"Th-T fluorescence, mean of three wells","Supplementary Fig. 47 source data, measurement M53 of time course",3.131
same,"Th-T fluorescence, mean of three wells","Supplementary Fig. 47 source data, measurement M54 of time course",3.122
same,"Th-T fluorescence, mean of three wells","Supplementary Fig. 47 source data, measurement M55 of time course",3.1161
same,"Th-T fluorescence, mean of three wells","Supplementary Fig. 47 source data, measurement M56 of time course",3.112
same,"Th-T assay plate reading, mean of three wells (Supplementary Fig. 47)",measurement M1,0.2982
same,"Th-T assay plate reading, mean of three wells (Supplementary Fig. 47)",measurement M2,0.2966
same,"Th-T assay plate reading, mean of three wells (Supplementary Fig. 47)",measurement M3,0.3112
same,"Th-T assay plate reading, mean of three wells (Supplementary Fig. 47)",measurement M4,0.3288
same,"Th-T assay plate reading, mean of three wells (Supplementary Fig. 47)",measurement M5,0.3791
same,"Th-T assay plate reading, mean of three wells (Supplementary Fig. 47)",measurement M6,0.4184
same,"Th-T assay plate reading, mean of three wells (Supplementary Fig. 47)",measurement M7,0.4946
same,"Th-T assay plate reading, mean of three wells (Supplementary Fig. 47)",measurement M8,0.5732
same,"Th-T assay plate reading, mean of three wells (Supplementary Fig. 47)",measurement M9,0.6554
same,"Th-T assay plate reading, mean of three wells (Supplementary Fig. 47)",measurement M10,0.6998
same,"Th-T assay plate reading, mean of three wells (Supplementary Fig. 47)",measurement M11,0.7388
same,"Th-T assay plate reading, mean of three wells (Supplementary Fig. 47)",measurement M12,0.7839
same,"Th-T assay plate reading, mean of three wells (Supplementary Fig. 47)",measurement M13,0.8524
same,"Th-T assay plate reading, mean of three wells (Supplementary Fig. 47)",measurement M14,1.025
same,"Th-T assay plate reading, mean of three wells (Supplementary Fig. 47)",measurement M15,1.367
same,"Th-T assay plate reading, mean of three wells (Supplementary Fig. 47)",measurement M16,1.777
same,"Th-T fluorescence, mean of three wells","reading M17, Supplementary Fig. 47 source data",2.114
same,"Th-T fluorescence, mean of three wells","reading M18, Supplementary Fig. 47 source data",2.387
same,"Th-T fluorescence, mean of three wells","reading M19, Supplementary Fig. 47 source data",2.598
same,"Th-T fluorescence, mean of three wells","reading M20, Supplementary Fig. 47 source data",2.677
same,"Th-T fluorescence, mean of three wells","reading M21, Supplementary Fig. 47 source data",2.685
same,"Th-T fluorescence, mean of three wells","reading M22, Supplementary Fig. 47 source data",2.669
same,"Th-T fluorescence, mean of three wells","reading M23, Supplementary Fig. 47 source data",2.723
same,"Th-T fluorescence, mean of three wells","reading M24, Supplementary Fig. 47 source data",2.7479
same,"Th-T fluorescence, mean of three wells","reading M25, Supplementary Fig. 47 source data",2.777
same,"Th-T fluorescence, mean of three wells","reading M26, Supplementary Fig. 47 source data",2.823
same,"Th-T fluorescence, mean of three wells","reading M27, Supplementary Fig. 47 source data",2.858
same,"Th-T fluorescence, mean of three wells","reading M28, Supplementary Fig. 47 source data",2.868
same,"Th-T fluorescence, mean of three wells","reading M29, Supplementary Fig. 47 source data",2.914
same,"Th-T fluorescence, mean of three wells","reading M30, Supplementary Fig. 47 source data",2.924
same,"Th-T fluorescence, mean of three wells","reading M31, Supplementary Fig. 47 source data",2.961
same,"Th-T fluorescence, mean of three wells","reading M32, Supplementary Fig. 47 source data",2.958
same,"Th-T fluorescence, mean of three wells","reading M33, Supplementary Fig. 47 source data",2.966
same,"Th-T fluorescence, mean of three wells","reading M34, Supplementary Fig. 47 source data",3.0036
same,"Th-T fluorescence, mean of three wells","reading M35, Supplementary Fig. 47 source data",3.001
same,"Th-T fluorescence, mean of three wells","reading M36, Supplementary Fig. 47 source data",3.031
same,"Th-T fluorescence, mean of three wells","time course, reading M57",3.145
same,"Th-T fluorescence, mean of three wells","time course, reading M58",3.098
same,"Th-T fluorescence, mean of three wells","time course, reading M59",3.0965
same,"Th-T fluorescence, mean of three wells","time course, reading M60",3.12
same,"Th-T fluorescence, mean of three wells","time course, reading M61",3.114
same,"Th-T fluorescence, mean of three wells","time course, reading M62",3.124
same,"Th-T fluorescence, mean of three wells","time course, reading M63",3.121
same,"Th-T fluorescence, mean of three wells","time course, reading M64",3.089
same,"Th-T fluorescence, mean of three wells","time course, reading M65",3.1417
same,"Th-T fluorescence, mean of three wells","time course, reading M66",3.124
same,"Th-T fluorescence, mean of three wells","time course, reading M67",3.125
same,"Th-T fluorescence, mean of three wells","time-course reading M97, Supplementary Fig. 47 source data",3.037
same,"Th-T fluorescence, mean of three wells","time-course reading M98, Supplementary Fig. 47 source data",3.037
same,"Th-T fluorescence, mean of three wells","time-course reading M99, Supplementary Fig. 47 source data",3.05
same,"Th-T fluorescence, mean of three wells","time-course reading M100, Supplementary Fig. 47 source data",3.074
same,"Th-T fluorescence, mean of three wells","time-course reading M101, Supplementary Fig. 47 source data",3.025
same,"Th-T fluorescence, mean of three wells","time-course reading M102, Supplementary Fig. 47 source data",3.036
same,"Th-T fluorescence, mean of three wells","time-course reading M103, Supplementary Fig. 47 source data",3.034
same,"Th-T fluorescence, mean of three wells","time-course reading M104, Supplementary Fig. 47 source data",3.0181
same,"Th-T fluorescence, mean of three wells","time-course reading M105, Supplementary Fig. 47 source data",3.041
same,"Th-T fluorescence, mean of three wells","time-course reading M106, Supplementary Fig. 47 source data",3.028
same,"Th-T fluorescence, mean of three wells","time-course reading M107, Supplementary Fig. 47 source data",3.025
same,"Th-T fluorescence, mean of three wells","time-course reading M108, Supplementary Fig. 47 source data",3.028
same,"Th-T fluorescence, mean of three wells","time-course reading M109, Supplementary Fig. 47 source data",3.032
same,"Th-T fluorescence, mean of three wells","time-course reading M110, Supplementary Fig. 47 source data",3.022
same,"Th-T fluorescence, mean of three wells","time-course reading M111, Supplementary Fig. 47 source data",3.062
same,"Th-T fluorescence, mean of three wells","time-course reading M112, Supplementary Fig. 47 source data",3.021
same,"Th-T fluorescence, mean of three wells","time-course reading M113, Supplementary Fig. 47 source data",3.021
same,"Th-T fluorescence, mean of three wells","time-course reading M114, Supplementary Fig. 47 source data",3.0544
same,"Th-T fluorescence, mean of three wells","time-course reading M115, Supplementary Fig. 47 source data",3.028
same,"Th-T fluorescence, mean of three wells","time-course reading M116, Supplementary Fig. 47 source data",3.017
